Results as given in PMC3436903 (Chembiochem : a European journal of chemical biology, 2011).

Assay: pH-dependence of keto acid-lactol equilibrium by 1H-NMR in D2O
Assay type: physicochemical

With `Nc1ncnc2c1ncn2[C@@H]1O[C@H](CNS(=O)(=O)NC(=O)CCC(=O)c2ccccc2C(=O)O)[C@@H](O)[C@H]1O` [Inhibitor 5] the “pD range of rapid equilibration of keto acid and lactol forms” value (intermediate chemical shifts) was 1.32–4.32 pD, the “pD at which the lactol form is observed” value (ketone α-protons at ≈2.45 ppm) was 0.89 pD and the “pD at which the keto acid form is observed” value (ketone α-protons at ≈3.2 ppm) was ≥ 5.70 pD.
